Test results reported in the NIST ThermoML archive (doi:10.1021/je400659p).

Experiments:
[1] = refractive index (Na D-line) (dimensionless); settings: 101.33 kPa, Liquid, Standard Abbe refractometry
[2] = 101 kPa, Liquid, Vibrating tube method
[3] = refractive index (Na D-line) (dimensionless); xn = mol fraction of the nth substance listed; settings: 101 kPa, Liquid, Standard Abbe refractometry
[4] = xn = mol fraction of the nth substance listed; settings: 101 kPa, Liquid, Vibrating tube method

OCCO [1,2-ethanediol]
Settings | mass density, [2] [kg/m3] | refractive index, [1]
293.15 K | 1113.45 | –
298.15 K | – | 1.43
303.15 K | 1106.45 | 1.4285
313.15 K | 1099.38 | 1.4258
323.15 K | 1092.24 | 1.4229
333.15 K | 1085 | –
343.15 K | 1077.65 | –
353.15 K | 1070.17 | –

OCCO [1,2-ethanediol] + CCCCn1cc[n+](C)c1.F[B-](F)(F)F
[3], x2 = 0
Settings | refractive index
298.15 K | 1.43
303.15 K | 1.4285
313.15 K | 1.4258
323.15 K | 1.4229

OCCO [1,2-ethanediol] + CCn1cc[n+](C)c1.F[B-](F)(F)F
x2 = 0
Settings | mass density, [4] [kg/m3] | refractive index, [3]
293.15 K | 1113.45 | –
298.15 K | – | 1.43
303.15 K | 1106.45 | 1.4285
313.15 K | 1099.38 | 1.4258
323.15 K | 1092.24 | 1.4229
333.15 K | 1085 | –
343.15 K | 1077.65 | –
353.15 K | 1070.17 | –

C1COCCO1 [1,4-dioxane]
Settings | mass density, [2] [kg/m3] | refractive index, [1]
293.15 K | 1033.57 | –
298.15 K | 1027.92 | 1.4205
303.15 K | 1022.27 | 1.4171
313.15 K | 1010.91 | 1.4112
323.15 K | 999.49 | 1.4063
333.15 K | 987.97 | –
343.15 K | 976.37 | –
353.15 K | 964.63 | –

C1COCCO1 [1,4-dioxane] + CCn1cc[n+](C)c1.F[B-](F)(F)F
x2 = 0
Settings | mass density, [4] [kg/m3] | refractive index, [3]
293.15 K | 1033.57 | –
298.15 K | 1027.92 | 1.4205
303.15 K | 1022.27 | 1.4171
313.15 K | 1010.91 | 1.4112
323.15 K | 999.49 | 1.4063
333.15 K | 987.97 | –
343.15 K | 976.37 | –
353.15 K | 964.63 | –

CCCCn1cc[n+](C)c1.F[B-](F)(F)F [1-butyl-3-methylimidazolium tetrafluoroborate]
Settings | mass density, [2] [kg/m3] | refractive index, [1]
293.15 K | 1204.44 | –
298.15 K | 1200.89 | 1.4215
303.15 K | 1197.34 | 1.4202
313.15 K | 1190.27 | 1.4179
323.15 K | 1183.24 | 1.4153
333.15 K | 1176.25 | –
343.15 K | 1169.32 | –
353.15 K | 1162.44 | –

CCCCn1cc[n+](C)c1.F[B-](F)(F)F [1-butyl-3-methylimidazolium tetrafluoroborate] + C1COCCO1
x1 = 1
Settings | mass density, [4] [kg/m3] | refractive index, [3]
293.15 K | 1204.44 | –
298.15 K | 1200.89 | 1.4215
303.15 K | 1197.34 | 1.4202
313.15 K | 1190.27 | 1.4179
323.15 K | 1183.24 | 1.4153
333.15 K | 1176.25 | –
343.15 K | 1169.32 | –
353.15 K | 1162.44 | –

CCCCn1cc[n+](C)c1.F[B-](F)(F)F [1-butyl-3-methylimidazolium tetrafluoroborate] + OCCO
refractive index, [3]
Settings | x1 = 0.0895 | x1 = 0.1758 | x1 = 0.3578 | x1 = 0.4397 | x1 = 0.6482 | x1 = 0.8121 | x1 = 1
298.15 K | 1.4276 | 1.4257 | 1.4231 | 1.4224 | 1.4217 | 1.4216 | 1.4215
303.15 K | 1.4258 | 1.4239 | 1.4216 | 1.4211 | 1.4205 | 1.4204 | 1.4202
313.15 K | 1.4231 | 1.4212 | 1.4188 | 1.4182 | 1.4178 | 1.4179 | 1.4179
323.15 K | 1.4203 | 1.4184 | 1.4159 | 1.4154 | 1.415 | 1.4152 | 1.4153

CCn1cc[n+](C)c1.F[B-](F)(F)F [1-ethyl-3-methylimidazolium tetrafluoroborate]
Settings | mass density, [2] [kg/m3] | refractive index, [1]
293.15 K | 1290.63 | –
298.15 K | 1286.82 | 1.4111
303.15 K | 1283.02 | 1.41
313.15 K | 1275.45 | 1.4073
323.15 K | 1267.97 | 1.4051
333.15 K | 1260.55 | –
343.15 K | 1253.18 | –
353.15 K | 1245.87 | –
